According to patent US11166461B2, “Methods of controlling or preventing infestation of soybean plants by phytopathogenic microorganisms” (SYNGENTA PARTICIPATIONS AG, priority 2017, dated 2021):

Experiments:
Fusarium virguliforme [1] = assay: Seed treatments on soybean cv. Toliman infected with Fusarium virguliforme (growth chamber pot test); assay type: in vivo; settings: 29 DAS; for % Disease severity: SDS index normalized to 100 for untreated infected control; for % Infected plants: soybean cv. Toliman
Procedure: Effect of Different Seed Treatments on Soybean Cv. Toliman Infected with Fusarium virguliforme:
Fusarium virguliforme/Soybean
5×5 soybean seeds cv. Toliman were sown into plastic pots. A mixture of 50% vol. sand and 50% vol. sterilized field soil was used as substrate. A layer of F. virguliforme infected millet seeds was placed below the soybean seeds. The test was kept in a growth chamber at 25° C. with 14 h artificial light; plants were irrigated up to field capacity. For the last five cultivation days, plants were kept at 18° C. The number of infected plants was counted 29 Days After Sowing (DAS).
Disease assessment was done visually 29 DAS, by classifying the plants according to a disease severity scale for SDS modified from Scandiani et al. (2011)* and J. Bond using classes from 0 to 4. The number of plants in each class were assessed. This allows calculating an “SDS Index” by multiplying the number of plants in each class with the disease severity (0, 1, 2, 3 or 4) and adding the products for all classes. SDS Index=n1×0+n2×1+n3×2+n4×3+n5×4. The SDS index is normalized to give an index of 100 for the untreated, infected control (UTCINF) and by calculating the normalized index for all treatments relative to the UTCINF. Shoot dry weight and shoot size was determined 29 DAS. • *Scandiani M., Ruberti D., Giorda L., Pioli R., Luque A., Bottai B., Ivancovich J., Aoki T., & O'Donnell K.: Comparison of inoculation methods for characterizing relative aggressiveness of two soybean sudden-death syndrome pathogens, Fusarium virguliforme and F. tucumaniae. Tropical Plant Pathology, vol. 36, 3, 133-140, 2011 Effect of Different Seed Treatments in the Field Against Sudden Death Syndrome (SDS) Caused by Fusarium virguliforme

Fusarium virguliforme [2] = assay: Seed treatments in the field against Sudden Death Syndrome (SDS) caused by Fusarium virguliforme, soybean field trial Clinton, Ill.; assay type: in vivo; settings: seed treatment 0.15 mg ai/seed plus base treatment; for % efficacy based on disease incidence / % disease incidence: 107 days after planting; for % efficacy based on disease incidence: 100 − (100/(untreated/treated)); for % disease incidence: infected plants per plot; for Yield (bushel/acre) / % yield increase: 150 days after planting; for Yield (bushel/acre): full plot harvest; for % yield increase: versus untreated
Procedure: Disease assessment was done visually 29 DAS, by classifying the plants according to a disease severity scale for SDS modified from […] et al. (2011)* and J. Bond using classes from 0 to 4. The number of plants in each class were assessed. […] SDS Index=n1×0+n2×1+n3×2+n4×3+n5×4. The SDS index is normalized to give an index of 100 for the untreated, infected control ([…]) and by calculating the normalized index for all treatments relative to the […]. Shoot dry weight and shoot size was determined 29 […]., Ruberti D., Giorda L., Pioli R., Luque […]., Aoki T., & O'Donnell K.: Comparison of inoculation methods for characterizing relative aggressiveness of two soybean sudden-death syndrome pathogens, Fusarium virguliforme and F. tucumaniae. Tropical Plant Pathology, vol. 36, 3, 133-140, 2011 Effect of Different Seed Treatments in the Field Against Sudden Death Syndrome (SDS) Caused by Fusarium virguliforme A soybean field trial was carried out in Clinton, Ill., USA. This site had historically SDS occurrence reported. […] The disease occurred end of August and an assessment on disease incidence (counting of infected plants) was done Sep. 15, 2017. The yield of the grain data has been taken at the end of the season. [table] [table] [table]

| SMILES | Shoot dry weight (Fusarium virguliforme [1]; seed treatment 10 g ai/100 kg) | Shoot length in mm (Fusarium virguliforme [1]; seed treatment 10 g ai/100 kg) | % Disease severity (Fusarium virguliforme [1]; seed treatment 10 g ai/100 kg) | % Infected plants (Fusarium virguliforme [1]; seed treatment 10 g ai/100 kg) | Shoot dry weight (Fusarium virguliforme [1]; seed treatment 20 g ai/100 kg) | Shoot length in mm (Fusarium virguliforme [1]; seed treatment 20 g ai/100 kg) | % Disease severity (Fusarium virguliforme [1]; seed treatment 20 g ai/100 kg) | % Infected plants (Fusarium virguliforme [1]; seed treatment 20 g ai/100 kg) | yield increase over the untreated check (Fusarium virguliforme [2]) | % efficacy based on disease incidence (Fusarium virguliforme [2]) | % disease incidence (Fusarium virguliforme [2]) | Yield (bushel/acre) (Fusarium virguliforme [2]) | % yield increase (Fusarium virguliforme [2]) | yield increase (in words) (Fusarium virguliforme [2]) |
| --- | --- | --- | --- | --- | --- | --- | --- | --- | --- | --- | --- | --- | --- | --- |
| O=C(NC1CCC1c1ccc(F)cc1Cl)c1cccnc1C(F)(F)F (stereo not shown) [Compound 7] | 4.09 g | 565 mm | 1% | 4% | 4.01 g | 530 mm | 0% | 0% | – | – | – | – | – | – |
| O=C(NC1CCC1c1ccc(F)cc1Cl)c1ncccc1C(F)(F)F (stereo not shown) [Compound 4] | 3.89 g | 541 mm | 5% | 8% | 3.77 g | 526 mm | 5% | 8% | – | – | – | – | – | – |
| O=C(NC1CCC1c1ccc(Cl)cc1Cl)c1cccnc1C(F)(F)F (stereo not shown) [Compound 1] | 3.57 g | 505 mm | 17% | 28% | 4.16 g | 587 mm | 0% | 0% | 8.11 bushels per acre | 79.72% | 12.17 B % | 79.15 A bushel/acre | 11.42% | – |
| O=C(NCCc1ncc(C(F)(F)F)cc1Cl)c1ccccc1C(F)(F)F [Fluopyram, reference compound] | – | – | – | – | – | – | – | – | – | 58.33% | 25.00 B % | 68.38 A bushel/acre | −3.74% | did not increase the yield |
